Test [1] has as its system HL-60. In words: Induction of human HL-60 cell adhesion after 48 hrs. It is filed as functional.
Test [2] has as its system HL-60. In words: Induction of TNFalpha release from human HL-60 cells after 24 hrs by ELISA. It is filed as functional.
For test [3], the species on record is Oryctolagus cuniculus. In words: Activation of rabbit brain PKC assessed as [32P] incorporation in histone 3-S from [gamma32P]ATP.
A short description of test [4]: Displacement of [3H]PDBu from partially purified rabbit brain PKC. The arrangement: species or system Oryctolagus cuniculus.
Test [5] is filed under the species Mus musculus. In words: Carcinogenesis in CD1 mouse skin assessed as tumor incidence at 4 nmol twice a week for 20 weeks. It counts as functional.
The species named for test [6] is Mus musculus. In words: Carcinogenesis in CD1 mouse skin assessed as tumor incidence at 400 nmol twice a week for 20 weeks. It is filed as functional.

Structures are written as SMILES.

Take `CCCCCCCCCCCCCC(=O)O[C@@H]1[C@@H](C)[C@@]2(O)[C@@H](C=C(CO)C[C@]3(O)C(=O)C(C)=C[C@@H]23)[C@@H]2C(C)(C)[C@]12OC(C)=O` [PHORBOL MYRISTATE ACETATE]: the results for the Activity in test [1] and in test [5] were 3 nM and 93.3%, respectively. Besides, the ED100 in test [2] turned out to be 6 nM. Further, in test [3], the ED50 came out at 15 nM. In addition, in test [4], the IC50 was found to be 15 nM.
As for `C=C(/C=C/C=C(/CO)[C@@H]1CC[C@]2([C@H](CCCO)/C(=C(/C)C=O)CC[C@]2(C)O)[C@H]1O)CCC=C(C)C`, the values for the Activity in test [1] and in test [6] were 500 nM and 64.3%, respectively. Further, in test [2], the ED100 is listed as 3000 nM. The ED50 in test [3] amounted to 300 nM. This molecule also displayed an IC50 in test [4] of 200 nM.

(Values after ChEMBL document CHEMBL1158017, “28-deacetylbelamcandal, a tumor-promoting triterpenoid from Iris tectorum” (J Nat Prod, 1999).)
